Reference: patent publication US10889748B2, “Process for preparing dibenzylamine quaternary ammonium salt high-temperature resistant corrosion inhibitor and applications thereof” (Southwest Petroleum University, priority 2018, dated 2021)

How the values were obtained:
[1] = 4 h corrosion test at 90° C. in 20% hydrochloric acid; conditions: P110 carbon steel, 1000 ppm inhibitor
Protocol: The corrosion inhibition performance of corrosion inhibitors in the embodiments 1 to 4 is determined by a 4 h corrosion test at 90° C. using 20% hydrochloric acid as a corrosive medium and P110 carbon steels. The amount of corrosion inhibitors is 1000 ppm.

[2] = Determination of water solubility of corrosion inhibitors in 20% hydrochloric acid solution; assay type: physicochemical; conditions: 0.1 g corrosion inhibitor in 200 mL of 20% hydrochloric acid solution
Protocol: (§1) The process is as follows: weigh […] of the corrosion inhibitor of the present invention, and dissolve in 200 mL of 20% hydrochloric acid solution, respectively, stir and observe its dissolution. Prepare 20% hydrochloric acid solution system adding with iron ion stabilizer citric acid, clay stabilizer potassium chloride and discharge aiding agent OP-10 or fluorocarbon surfactant, respectively, and then weigh 0.1 g of the corrosion inhibitor of the present invention and add them to the 20% hydrochloric acid solution system, to observe the compatibility.

[3] = Compatibility with 20% hydrochloric acid system containing iron ion stabilizer, clay stabilizer and discharge aiding agent; assay type: physicochemical; conditions: 0.1 g in 20% hydrochloric acid system with citric acid, potassium chloride and OP-10 or fluorocarbon surfactant; 90° C.
Protocol: as §1, with “The water solubility of the corrosion inhibitor prepared by Embodiments 1 to 4 and its compatibility with the system containing the iron ion stabilizer, clay stabilizer and discharge aiding agent under 90° C. are determined. The” for “The”

| Compatibility [3] | Compound | Corrosion rate [1] [gm^−2h^−1] | Inhibition rate [1] [%] | Water solubility and appearance [2] |
| --- | --- | --- | --- | --- |
| Uniform and transparent, | OC(C[N+]1(Cc2ccc3ccccc3c2)CCOCC1)C[N+](Cc1ccccc1)(Cc1ccccc1)Cc1ccc2ccccc2c1 (stereo not drawn) [Embodiment 1] | 34.87 | 95.18 | Soluble colorless |
| Uniform and transparent, | OC(C[N+](Cc1ccccc1)(Cc1ccccc1)Cc1ccccc1)C[N+]1(Cc2ccccc2)C=Cc2ccccc21 (stereo not drawn) [Embodiment 2] | 45.79 | 93.68 | Soluble colorless |
| Uniform and transparent, | CCCCCC[N+](Cc1ccccc1)(Cc1ccccc1)CC(O)C[N+](CCCCCC)(Cc1ccccc1)CC(O)C[N+](CCCCCC)(Cc1ccccc1)Cc1ccccc1 (stereo not drawn) [Embodiment 3] | 29.86 | 95.88 | Soluble colorless |
